Our source for the MIC and HC50 values is ChEMBL document CHEMBL5608163, “Structure modification of anoplin for fighting resistant bacteria” (Eur J Med Chem, 2024).

The subject of data set [1] is Mycolicibacterium smegmatis. Put plainly: Antimycobacterial activity against Mycobacterium smegmatis mc2 155 assessed as reduction in bacterial cell growth incubated for 24 hrs by resazurin dye based broth microdilution method. The data set is classed as functional. On the technique in general: The colour change of resazurin is a common sign of viable cells or microbes.

Another data set relates to Bacillus subtilis. The experiment in a line: Antimicrobial activity against Bacillus subtilis assessed as microbial growth inhibition incubated for 24 hrs by broth micro-dilution method. Type of data set: functional. A general note: In broth dilution the organism is exposed to a series of concentrations in liquid medium.
Data set [2] concerns Escherichia coli. The experiment in a line: Antibacterial acitivity against Escherichia coli DH5a assessed as bacterial growth inhibition incubated for 24 hrs by broth micro-dilution method. Type of data set: functional.
A further data set has as its system Zymomonas mobilis. Put plainly: Antibacterial activity against Zymomonas mobilis ATCC 10988 assessed as reduction in bacterial growth incubated for 24 hrs by broth micro-dilution method. Type of data set: functional.
Data set [3] relates to Pseudomonas aeruginosa. Put plainly: Antimicrobial activity against Pseudomonas aeruginosa assessed as inhibition of microbial growth incubated for 24 hrs by microdilution method. Type of data set: functional.
The nature of data set [4]: Hemolytic activity against human Red blood cells assessed as cell lysis. Type of data set: toxicity, cell-based, Erythrocyte.
Data set [5] is described as follows: Hemolytic activity in human RBC. The data set is classed as toxicity, cell-based, Erythrocyte. Particulars: red blood cells.
The subject of a further data set is Staphylococcus aureus. Put plainly: Antibacterial activity against methicillin-resistant Staphylococcus aureus ATCC 33591 assessed as reduction in bacterial growth incubated for 16 to 24 hrs by agar dilution method. The data set is classed as functional. To be noted: time 16-24 hrs.
The subject of a further data set is Enterococcus faecium. The experiment in a line: Antibacterial activity against vancomycin resistant Enterococcus faecium NCTC 12204 assessed as reduction in bacterial growth by microdilution broth method. The data set is classed as functional.
For data set [6], the system named is Escherichia coli. Put plainly: Antibacterial activity against Escherichia coli ATCC 25922 assessed as reduction in bacterial growth incubated for 18 to 24 hrs by broth microdilution method. The data set is classed as functional. Particulars: time 18-24 hrs.
Data set [7] relates to Pseudomonas aeruginosa. The experiment in a line: Antibacterial activity against Pseudomonas aeruginosa ATCC 15442 assessed as reduction in bacterial cell growth incubated for 18 to 24 hrs by two fold serial microdilution method. Particulars: time 18-24 hrs. The data set is classed as functional.
Data set [8] is described as follows: Hemolytic activity against Red blood cells (unknown origin) incubated for 1 hr by spectrophotometric analysis. The data set is classed as toxicity, cell-based, Erythrocyte.

SMILES strings stand for the structures. ≈ marks a conversion by molar mass, not a printed value. Square brackets hold non-standard residues; d marks the D form. Peptide text beside a SMILES is read from it. 2Nal = N[C@@H](Cc1ccc2ccccc2c1)C(=O)O; Cha = N[C@@H](CC1CCCCC1)C(=O)O

In the case of `CC[C@H](C)[C@H](NC(=O)[C@H](Cc1ccccc1)NC(=O)[C@H](CCCCN)NC(=O)[C@H](CC(C)C)NC(=O)[C@H](CC(C)C)NC(=O)CN)C(=O)N[C@@H](CCCCN)C(=O)N[C@@H](CCCNC(=N)N)C(=O)N[C@@H](CC(C)C)C(=O)N[C@@H](CC(C)C)C(N)=O` (H-GLLKFIKRLL-NH2), the MIC in data set [1] was determined as 4.2 µM (≈ 5.04 µg/mL); with Bacillus subtilis, 167 µM (≈ 200 µg/mL); in the data set with Escherichia coli [2], 167 µM (≈ 200 µg/mL); in the data set on Zymomonas mobilis, 17.4 µM (≈ 20.9 µg/mL); with Pseudomonas aeruginosa [3], 2.5 µM. Further, in data set [4], the concentration for 50% haemolysis (HC50) was > 167 µM.
For the molecule `CC[C@H](C)[C@H](NC(=O)[C@H](CCCCN)NC(=O)[C@H](CC(C)C)NC(=O)[C@H](CC(C)C)NC(=O)CN)C(=O)N[C@H](C(=O)N[C@@H](CCCCN)C(=O)N[C@@H](CCCCN)C(=O)N[C@@H](CC(C)C)C(=O)N[C@@H](CC(C)C)C(N)=O)[C@@H](C)CC` (H-GLLKIIKKLL-NH2), the MIC worked out at 16.7 µM (≈ 19 µg/mL) in data set [1]; 5.9 µM (≈ 6.71 µg/mL) in the data set on Bacillus subtilis; 83.7 µM (≈ 95.2 µg/mL) with Escherichia coli [2]; 2.5 µM (≈ 2.84 µg/mL) with Zymomonas mobilis; 2.5 µM in the data set with Pseudomonas aeruginosa [3]. For the same molecule, the HC50 in data set [4] was > 167 µM.
Regarding `CC[C@H](C)[C@H](NC(=O)[C@H](CCCCN)NC(=O)[C@H](CC(C)C)NC(=O)[C@H](CC(C)C)NC(=O)CN)C(=O)N[C@H](C(=O)N[C@@H](CCCCN)C(=O)N[C@@H](CCCNC(=N)N)C(=O)N[C@@H](CC(C)C)C(=O)N[C@@H](CC(C)C)C(N)=O)[C@@H](C)CC` (H-GLLKIIKRLL-NH2), the MIC in data set [1] was found to be 4.3 µM (≈ 5.01 µg/mL); with Bacillus subtilis, 8.6 µM (≈ 10 µg/mL); in the data set with Escherichia coli [2], 172 µM (≈ 200 µg/mL); in the data set on Zymomonas mobilis, 33.9 µM (≈ 39.5 µg/mL); in the data set with Pseudomonas aeruginosa [3] it was 2.6 µM. Further, the 50% haemolytic concentration (HC50) in [4] is > 172 µM.
`CC(C)C[C@H](NC(=O)CN)C(=O)N[C@@H](CC(C)C)C(=O)N[C@@H](CCCCN)C(=O)N[C@@H](CCCCN)C(=O)N[C@@H](Cc1ccc2ccccc2c1)C(=O)N[C@@H](CCCCN)C(=O)N[C@H](C(=O)N[C@@H](CC(C)C)C(=O)N[C@@H](CC1CCCCC1)C(N)=O)[C@@H](C)O` (H-GLLKK[2Nal]KTL[Cha]-NH2) returned an HC50 in data set [5] of 26.6 µM. The minimal inhibitory concentration (MIC) in the data set with Staphylococcus aureus turned out to be 9.5 µM (≈ 11.9 µg/mL); with Enterococcus faecium, 4.6 µM (≈ 5.75 µg/mL); in the data set with Escherichia coli [6] it was 9.5 µM (≈ 11.9 µg/mL); with Pseudomonas aeruginosa [7], 6.6 µM (≈ 8.25 µg/mL). For the same molecule, the HC50 at 1 h in data set [8] was found to be 26.6 µM.
For `CC[C@H](C)[C@H](NC(=O)[C@H](CCCNC(=N)N)NC(=O)[C@H](CCCCN)NC(=O)[C@H](CC(C)C)NC(=O)[C@H](CC(C)C)NC(=O)CN)C(=O)N[C@@H](CCCCN)C(=O)N[C@@H](CCCCN)C(=O)N[C@@H](CC(C)C)C(=O)N[C@@H](CC1CCCCC1)C(N)=O` (H-GLLKRIKKL[Cha]-NH2), the HC50 in data set [5] worked out at 12.4 µM. Further, the MIC came to 9.5 µM (≈ 11.6 µg/mL) in the data set with Staphylococcus aureus, 9.5 µM (≈ 11.6 µg/mL) in the data set with Enterococcus faecium, 9.5 µM (≈ 11.6 µg/mL) in the data set on Escherichia coli [6] and 4.6 µM (≈ 5.62 µg/mL) in the data set on Pseudomonas aeruginosa [7]. Also, the HC50 at 1 h in [8] turned out to be 12.4 µM.
As for `CC[C@H](C)[C@H](NC(=O)[C@H](CCCCN)NC(=O)[C@H](CCCCN)NC(=O)[C@H](CC(C)C)NC(=O)[C@H](CC1CCCCC1)NC(=O)CN)C(=O)N[C@@H](CCCCN)C(=O)N[C@@H](CCCCN)C(=O)N[C@@H](CC(C)C)C(=O)N[C@@H](CC1CCCCC1)C(N)=O` (H-G[Cha]LKKIKKL[Cha]-NH2), the concentration for 50% haemolysis (HC50) in data set [5] is 0.5 µM. Also, the MIC came to 3.2 µM (≈ 3.94 µg/mL) in the data set on Staphylococcus aureus, 3.2 µM (≈ 3.94 µg/mL) with Enterococcus faecium, 4.6 µM (≈ 5.67 µg/mL) in the data set on Escherichia coli [6] and 3.2 µM (≈ 3.94 µg/mL) with Pseudomonas aeruginosa [7]. For the same molecule, in [8], the HC50 at 1 h came to 0.5 µM.
Consider `CC(C)C[C@H](NC(=O)[C@H](CC(C)C)NC(=O)[C@@H](NC(=O)[C@H](CCCCN)NC(=O)[C@H](Cc1ccc2ccccc2c1)NC(=O)[C@H](CCCCN)NC(=O)[C@H](CCCCN)NC(=O)[C@H](CC(C)C)NC(=O)[C@H](CC1CCCCC1)NC(=O)CN)[C@@H](C)O)C(N)=O` (H-G[Cha]LKK[2Nal]KTLL-NH2), for which, in [5], the HC50 was found to be 15.3 µM. Moreover, the MIC in the data set with Staphylococcus aureus came out at 28.4 µM (≈ 35.5 µg/mL); in the data set with Enterococcus faecium, 9.5 µM (≈ 11.9 µg/mL); in the data set on Escherichia coli [6] it was 9.5 µM (≈ 11.9 µg/mL); in the data set on Pseudomonas aeruginosa [7], 9.5 µM (≈ 11.9 µg/mL). The molecule also came in with an HC50 at 1 h in [8] of 15.3 µM.

As a reminder, the MIC is the least concentration at which growth counts as inhibited. A word on the HC50: it is the concentration that lyses half of the red blood cells.
